Data reported in PMC11992128, “Inhibition of Rho GEFs attenuates pulmonary fibrosis through suppressing myofibroblast activation and reprogramming profibrotic macrophages” (Cell Death & Disease, 2025).

Experiments:
[1] = molecular target: T1, DH/PH domain of LARG (Leukemia-associated RhoGEF); ARHGEF12(765-1138aa) (Homo sapiens, UniProt Q9NZN5); test: CETSA, NIH/3T3 expressing the GST-tagged domain, Western blot; assay type: cell-based; conditions: 75 μM GL-V9, 3 h
T1 construct: DH/PH domain; GST-ARHGEF12(765-1138aa) by lentivirus in NIH/3T3 for the cell tests
T1 sequence (Q9NZN5 765-1138): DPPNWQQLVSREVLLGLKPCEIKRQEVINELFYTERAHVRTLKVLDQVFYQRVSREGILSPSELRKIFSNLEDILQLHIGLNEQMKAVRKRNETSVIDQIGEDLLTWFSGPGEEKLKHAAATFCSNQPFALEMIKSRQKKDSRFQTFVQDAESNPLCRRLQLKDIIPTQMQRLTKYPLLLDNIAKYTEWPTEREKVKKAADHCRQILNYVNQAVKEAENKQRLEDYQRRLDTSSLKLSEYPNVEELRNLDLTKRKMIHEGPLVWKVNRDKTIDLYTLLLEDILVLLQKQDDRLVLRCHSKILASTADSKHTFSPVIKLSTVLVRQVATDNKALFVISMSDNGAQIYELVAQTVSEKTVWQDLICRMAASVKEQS

[2] = molecular target: T1, DH/PH domain of LARG (Leukemia-associated RhoGEF); ARHGEF12(765-1138aa); test: surface plasmon resonance (Biacore S200, CM5 chip, immobilised protein); assay type: binding

COc1c(OCCCCN2CCCC2)cc(O)c2c(=O)cc(-c3ccccc3)oc12 [GL-V9, 5-hydroxy-8-methoxy-2-phenyl-7-(4-(pyrrolidine-1-yl)butoxy) 4H-chromen-4-one]
thermal stability [1]: GL-V9 significantly enhanced the thermal stability of the wild-type DH/PH domain | Kd [2]: 11.8 µM
